Laboratory results: ChEMBL document CHEMBL4346699 (Eur J Med Chem, 2019)

Columns and labels:
[1] = Clearance in human; format: ADME
[2] = Metabolic stability in rat microsomes assessed as parent compound remaining after 5 mins; format: ADME, Microsome; details: read-out: Stability
[3] = Metabolic stability in human microsomes assessed as parent compound remaining after 30 mins; format: ADME, Microsome; details: read-out: Stability
[4] = Metabolic stability in human microsomes assessed as parent compound remaining after 0 mins; format: ADME, Microsome; details: read-out: Stability
[5] = Metabolic stability in rat microsomes assessed as parent compound remaining after 45 mins; format: ADME, Microsome; details: read-out: Stability
[6] = Metabolic stability in human microsomes assessed as parent compound remaining after 5 mins; format: ADME, Microsome; details: read-out: Stability
[7] = Metabolic stability in rat microsomes assessed as parent compound remaining after 30 mins; format: ADME, Microsome; details: read-out: Stability
[8] = Half life in rat microsomes; details: in vitro
[9] = Metabolic stability in rat microsomes assessed as parent compound remaining after 0 mins; format: ADME, Microsome; details: read-out: Stability
[10] = Clearance in rat microsomes; details: in vitro
[11] = Metabolic stability in rat microsomes assessed as parent compound remaining after 15 mins; format: ADME, Microsome; details: read-out: Stability
[12] = Metabolic stability in human microsomes assessed as parent compound remaining after 45 mins; format: ADME, Microsome; details: read-out: Stability
[13] = Metabolic stability in human microsomes assessed as parent compound remaining after 15 mins; format: ADME, Microsome; details: read-out: Stability
[14] = Tmax in human at 125 mg, po; format: ADME; details: in vivo
[15] = Oral bioavailability in human at 125 mg; format: ADME, organism-based; details: in vivo
[16] = Protein binding in human plasma at 125 mg, po; format: ADME, cell-free; details: read-out: PPB (converted)
[17] = Protein binding in human plasma; format: ADME, cell-free; details: read-out: PPB (converted)
[18] = biological target: Homeodomain-interacting protein kinase 1 (Homo sapiens, UniProt Q86Z02); assay: Inhibition of wild-type human partial length HIPK1 (M146 to I555 residues) expressed in mammalian expression system assessed as residual activity at 50 nM by Kinomescan method relative to control
[19] = biological target: Calcium/calmodulin-dependent protein kinase type 1 (Homo sapiens, UniProt Q14012); assay: Inhibition of wild-type human full length CAMK1A (M1 to L370 residues) expressed in bacterial expression system assessed as residual activity at 50 nM by Kinomescan method relative to control
[20] = Tmax in human; format: ADME
[21] = AUC (0 to 7 hrs) in Sprague-Dawley rat at 5 mg/kg, po by LC-MS/MS analysis; format: ADME, organism-based; parameters: dose 5 mg/kg, time < 7 hr, route oral; details: in vivo
[22] = Oral bioavailability in Sprague-Dawley rat at 5 mg/kg by LC-MS/MS analysis; format: ADME, organism-based; details: in vivo
[23] = Half life in Sprague-Dawley rat at 1 mg/kg, iv by LC-MS/MS analysis; format: ADME, organism-based; details: in vivo
[24] = Volume of distribution at steady state in Sprague-Dawley rat at 1 mg/kg, iv by LC-MS/MS analysis; format: ADME, organism-based; details: in vivo, read-out: Vdss
[25] = Tmax in Sprague-Dawley rat at 5 mg/kg, po by LC-MS/MS analysis; format: ADME, organism-based; details: in vivo
[26] = Clearance in Sprague-Dawley rat at 1 mg/kg, iv by LC-MS/MS analysis; format: ADME, organism-based; details: in vivo
[27] = AUC (0 to 7 hrs) in Sprague-Dawley rat at 1 mg/kg, iv by LC-MS/MS analysis; format: ADME, organism-based; parameters: dose 1 mg/kg, time < 7 hr, route intravenous; details: in vivo
[28] = biological target: Cyclin-dependent kinase 1 (Homo sapiens, UniProt P06493)
Description: Inhibition of CDK1 (unknown origin)

[29] = biological target: CDK2/Cyclin A2 (Homo sapiens, UniProt P24941); assay: Inhibition of CDK2/CyclinA (unknown origin) assessed as reduction in TAMRA tagged peptide substrate phosphorylation by fluorescence polarization assay; format: protein-complex assay

Chain of Homeodomain-interacting protein kinase 1 (Q86Z02 whole entry, the tested form may be a part): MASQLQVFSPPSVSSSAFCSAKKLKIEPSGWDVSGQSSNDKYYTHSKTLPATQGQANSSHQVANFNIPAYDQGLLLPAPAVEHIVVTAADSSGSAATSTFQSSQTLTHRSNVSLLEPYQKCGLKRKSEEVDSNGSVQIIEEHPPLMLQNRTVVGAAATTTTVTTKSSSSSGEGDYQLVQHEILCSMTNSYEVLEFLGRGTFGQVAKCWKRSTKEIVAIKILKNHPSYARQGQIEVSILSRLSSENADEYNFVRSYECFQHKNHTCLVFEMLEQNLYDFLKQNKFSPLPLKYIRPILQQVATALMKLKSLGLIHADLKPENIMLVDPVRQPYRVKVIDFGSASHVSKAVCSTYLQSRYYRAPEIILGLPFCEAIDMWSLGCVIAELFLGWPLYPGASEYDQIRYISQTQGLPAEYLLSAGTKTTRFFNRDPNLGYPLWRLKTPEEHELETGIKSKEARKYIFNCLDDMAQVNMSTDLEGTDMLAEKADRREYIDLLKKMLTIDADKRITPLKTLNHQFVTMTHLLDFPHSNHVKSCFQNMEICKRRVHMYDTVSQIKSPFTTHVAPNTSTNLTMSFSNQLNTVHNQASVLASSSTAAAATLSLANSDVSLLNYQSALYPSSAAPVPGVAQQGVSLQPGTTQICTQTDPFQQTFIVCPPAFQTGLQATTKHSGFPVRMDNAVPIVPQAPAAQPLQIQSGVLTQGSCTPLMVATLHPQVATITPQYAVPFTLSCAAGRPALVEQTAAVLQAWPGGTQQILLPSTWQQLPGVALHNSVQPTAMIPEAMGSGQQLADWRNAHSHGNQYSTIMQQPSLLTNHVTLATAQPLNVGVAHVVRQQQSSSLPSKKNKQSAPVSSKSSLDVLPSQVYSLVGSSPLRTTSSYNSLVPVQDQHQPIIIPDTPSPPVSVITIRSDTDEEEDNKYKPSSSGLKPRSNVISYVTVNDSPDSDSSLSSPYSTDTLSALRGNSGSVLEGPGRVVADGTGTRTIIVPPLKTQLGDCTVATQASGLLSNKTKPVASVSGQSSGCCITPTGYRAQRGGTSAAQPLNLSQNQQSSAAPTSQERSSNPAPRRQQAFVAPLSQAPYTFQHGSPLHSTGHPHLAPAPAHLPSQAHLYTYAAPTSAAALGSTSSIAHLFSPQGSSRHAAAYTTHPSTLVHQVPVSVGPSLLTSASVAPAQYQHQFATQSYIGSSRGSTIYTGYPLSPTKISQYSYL
Chain of Cyclin-dependent kinase 1 (P06493 whole entry): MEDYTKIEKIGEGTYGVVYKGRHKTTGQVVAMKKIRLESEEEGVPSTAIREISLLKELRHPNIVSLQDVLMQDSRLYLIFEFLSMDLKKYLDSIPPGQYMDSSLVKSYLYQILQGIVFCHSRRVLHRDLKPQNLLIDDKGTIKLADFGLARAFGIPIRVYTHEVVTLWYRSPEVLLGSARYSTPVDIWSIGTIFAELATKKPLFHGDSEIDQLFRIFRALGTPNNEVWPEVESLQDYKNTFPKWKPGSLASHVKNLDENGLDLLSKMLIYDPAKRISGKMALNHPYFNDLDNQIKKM
Chain of Calcium/calmodulin-dependent protein kinase type 1 (Q14012 whole entry, the tested form may be a part): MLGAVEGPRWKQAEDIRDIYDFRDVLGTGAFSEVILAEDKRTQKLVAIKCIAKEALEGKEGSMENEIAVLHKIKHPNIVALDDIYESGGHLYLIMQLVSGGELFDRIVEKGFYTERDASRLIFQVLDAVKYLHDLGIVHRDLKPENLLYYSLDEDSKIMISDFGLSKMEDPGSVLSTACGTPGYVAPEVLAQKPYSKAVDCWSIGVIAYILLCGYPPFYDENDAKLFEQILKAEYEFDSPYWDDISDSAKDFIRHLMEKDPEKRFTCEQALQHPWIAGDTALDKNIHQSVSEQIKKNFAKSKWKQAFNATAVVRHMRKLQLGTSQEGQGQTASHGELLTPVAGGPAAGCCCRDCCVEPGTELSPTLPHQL

| SMILES | clearance [1] | remaining at 5 min [2] | remaining at 0.5 h [3] | remaining at 0 h [4] | remaining at 0.75 h [5] | remaining at 5 min [6] | remaining at 0.5 h [7] | half-life [8] | remaining at 0 h [9] | clearance [10] | remaining at 0.25 h [11] | remaining at 0.75 h [12] | remaining at 0.25 h [13] | also measured |
| --- | --- | --- | --- | --- | --- | --- | --- | --- | --- | --- | --- | --- | --- | --- |
| [2H]c1nc(Nc2ncc(F)c(-c3cc(F)c4nc(C)n(C(C)C)c4c3)n2)c([2H])c([2H])c1CN1CCN(C([2H])([2H])C([2H])([2H])[2H])CC1 | 155 mL/min/kg | 92.7% | 16.4% | 100% | 51.3% | 79.4% | 65.9% | 0.785 h | 100% | 52.7 mL/min/kg | 83% | 6.48% | 43.3% |  |
| [2H]C([2H])([2H])C([2H])([2H])N1CCN(Cc2ccc(Nc3ncc(F)c(-c4cc(F)c5nc(C)n(C(C)C)c5c4)n3)nc2)CC1 | 156 mL/min/kg | 93.8% | 16% | 100% | 51.3% | 77.7% | 66.9% | 0.784 h | 100% | 52.8 mL/min/kg | 83.4% | 6.21% | 42.4% |  |
| CC(=O)c1c(C)c2cnc(Nc3ccc(N4CCNCC4)cn3)nc2n(C2CCCC2)c1=O [PALBOCICLIB] |  |  |  |  |  |  |  |  |  |  |  |  |  | Tmax [14]: 6 to 12 h; bioavailability [15]: 46%; fraction unbound [16]: 0.15 |
| [2H]C([2H])([2H])C([2H])([2H])N1C([2H])([2H])C([2H])([2H])N(Cc2ccc(Nc3ncc(F)c(-c4cc(F)c5nc(C)n(C(C)C)c5c4)n3)nc2)C([2H])([2H])C1([2H])[2H] | 130 mL/min/kg | 92.2% | 21.3% | 100% | 57.6% | 80.3% | 69.9% | 0.956 h | 100% | 43.3 mL/min/kg | 86% | 9.86% | 47.9% |  |
| CCN1CCN(Cc2ccc(Nc3ncc(F)c(-c4cc(F)c5nc(C)n(C(C)C)c5c4)n3)nc2)CC1 [ABEMACICLIB] | 172 mL/min/kg | 94.1% | 13% | 100% | 45.6% | 76.1% | 61.6% | 0.658 h | 100% | 62.9 mL/min/kg | 81% | 4.76% | 38.9% | fraction unbound [17]: 0.04; Ki [18]: < 10 nM; Ki [19]: < 10 nM; Tmax [20]: 4 to 24 h |
| [2H]C([2H])([2H])N(C(=O)c1cc2cnc(Nc3ccc(N4CCNCC4)cn3)nc2n1C1CCCC1)C([2H])([2H])[2H] |  |  |  |  |  |  |  |  |  |  |  |  |  | AUC [21]: 5.432 µM·h; F [22]: 55%; half-life [23]: 3.2 h; Vd [24]: 8.6 L/kg; Tmax [25]: 2 h; clearance [26]: 37 mL/min/kg; AUC ([27]; 7 h): 0.883 µM·h |
| CN(C)C(=O)c1cc2cnc(Nc3ccc(N4CCNCC4)cc3)nc2n1C1CCCC1 |  |  |  |  |  |  |  |  |  |  |  |  |  | IC50 [28]: > 1600 nM; IC50 [29]: > 1400 nM |
| CN(C)C(=O)c1cc2cnc(Nc3ccc(N4CCNCC4)cn3)nc2n1C1CCCC1 [RIBOCICLIB] |  |  |  |  |  |  |  |  |  |  |  |  |  | fraction unbound [17]: 0.3; AUC [21]: 1.618 µM·h; half-life [23]: 2.3 h; Tmax [25]: 1.5 h; AUC(0-t) at 7 h ([27]; Sprague-Dawley): 1.03 µM·h; Tmax [20]: 1 to 4 h |
